Consider two molecules from patent US12728119B2, “Pharmaceutical composition for preventing or treating cancer comprising 3-ketoacyl CoA thiolase inhibitor and carnitine acylcarnitine carrier inhibitor” (NATIONAL CANCER CENTER, priority 2020, dated 2026).

Type in all cases: cell-based
In experiment [1] the test system is U87MG glioblastoma (GBM) cell line. Nature of the experiment: SRB analysis 3. The following applies: 48 hours. The method, boiled down:
(§1)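 Glioblastoma cells were seeded at 5,000–40,000/well and exposed for 48 h at 37 °C to a triple combination of CAC inhibitor, trimetazidine and another anticancer drug. Growth was read by TCA fixation, 0.4% SRB staining and absorbance at 515 nm after solubilisation in 10 mM Trizma, n=3.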

Experiment [2] has as its system T87G glioblastoma (GBM) cell line. Description: SRB analysis 3. The following applies: 48 hours. The method, boiled down:
as §1

Experiment [3] has as its system SU.86.86 pancreatic cancer cells. Nature of the experiment: SRB analysis 2. The settings on record: 48 hours. The method, then:
(§2) The SRB assay was performed as follows: each cell line (100 μl) was seeded into 96-well microtiter plates at densities ranging from 5,000 to 20,000 cells/well depending on the doubling time of each cell line. After cell seeding, microtiter plates were incubated for 24 h before addition of experimental drug. Drugs were prepared at the indicated concentrations and 100 μl was added to each well; The plates were then incubated in a CO2 incubator. Then, cold TCA was added to terminate the assay. Cells were fixed in situ by gentle addition of 50 μl of cold 50% (w/v) TCA (final concentration: 10% TCA) and incubated at 4° C. for 60 min. The supernatant was discarded and the plate was washed 5 times with tap water and then air dried. A solution (100 μl) of 0.4% (w/v) SRB (Sulforhodamine B) in 1% acetic acid was added to each well, and the plate was left at room temperature for 10 minutes. After staining, the plates were air dried after washing 5 times with 1% acetic acid to remove unbound dye. The bound dye was then solubilized with 10 mM trizma base and the absorbance was recorded at 515 nm using an automated plate reader.

Experiment [4] has as its system BxPC-3 pancreatic cancer cells. Nature of the experiment: SRB analysis 2. The following applies: 48 hours. The method, then: as §2
In experiment [5] the test system is AsPC-1 pancreatic cancer cells. Description: SRB analysis 2. The following applies: 48 hours. The method, then:
as §2

The test system of experiment [6] is MIA PaCa2 pancreatic cancer cells. Nature of the experiment: SRB analysis 2. The settings on record: MIA PaCa-2, 48 hours. The method, then: as §2
Experiment [7] deals with SNU-213 pancreatic cancer cells. Nature of the experiment: SRB analysis 2. The settings on record: SNU213, 48 hours. The method, then:
as §2

Experiment [8] deals with SNU-324 pancreatic cancer cells. Description: SRB analysis 2. The following applies: SNU324, 48 hours. The method, then:
as §2

In experiment [9] the test system is BxPC-3 pancreatic cancer cell line. Description: SRB analysis 1. The following applies: Homo sapiens, % compared to the control group, read-out: degree of growth inhibition. Here is the method: (§3) Pancreatic cancer (MIA PaCa2, Capan1, Capan2, BxPC-3, SNU-213 or SNU-324) cell lines (100 μl) were seeded into 96-well microtiter plates at densities ranging from 7,500 to 10,000 cells/well depending on the doubling time of each cell line. After adding Trimetazidine (KN713) 1 mM, omeprazole (KN510) 100 or 200 μM, trimetazidine 1 mM+omeprazole 100 μM, trimetazidine 1 mM+omeprazole 200 μM, respectively, to each well by 100 μl each, and plate was incubated in a CO2 incubator, and cold TCA was added to terminate the assay. 50 μl of cold 50% (w/v) TCA (final concentration: 10% TCA) was gently added to fix the cells and incubated at 4° C. for 60 minutes. The supernatant was discarded and the plate was washed 5 times with tap water and then air dried. A solution of 0.4% (w/v) Sulforhodamine B (100 μl) in 1% acetic acid was added to each well, and the plate was left at room temperature for 10 minutes. After staining, the plates were air dried after washing 5 times with 1% acetic acid to remove unbound dye. The bound dye was then solubilized with 10 mM trizma base and the absorbance was recorded at 515 nm using an automated plate reader.

Experiment [10] has as its system Capan2 pancreatic cancer cell line. Nature of the experiment: SRB analysis 1. The settings on record: Homo sapiens, % compared to the control group, read-out: degree of growth inhibition. The method, then: as §3
For experiment [11], the system named is MIA PaCa2 pancreatic cancer cell line. Nature of the experiment: SRB analysis 1. The settings on record: Homo sapiens, % compared to the control group, read-out: degree of growth inhibition. Here is the method: as §3
In experiment [12] the test system is Capan1 pancreatic cancer cell line. Nature of the experiment: SRB analysis 1. The following applies: Homo sapiens, % compared to the control group, read-out: degree of growth inhibition. Here is the method: as §3
The subject of experiment [13] is SNU-213 pancreatic cancer cell line. Description: SRB analysis 1. The settings on record: % compared to the control group, read-out: degree of growth inhibition. Here is the method:
as §3

For experiment [14], the system named is SNU-324 pancreatic cancer cell line. Description: SRB analysis 1. The following applies: % compared to the control group, read-out: degree of growth inhibition. The method, then:
as §3

Several values for one entry are separate records, joined by “and”; a condition that tells them apart may be missing. Identical values can stand only once.

`COc1ccc2[nH]c([S+]([O-])Cc3ncc(C)c(OC)c3C)nc2c1` (stereo not shown) [KN510, omeprazole]: the entries for the “cell growth (Control = 100)” value in experiment [1] (KN510 100 μM) and in experiment [2] (KN510 100 μM) were 84.15 and 67.87, respectively. In addition, the “degree of cell growth based on the control (100%)” value (“degree … (100%)” below) in experiment [3] (KN510 100 μM) is reported as 78.12%; in experiment [3] (KN510 200 μM), 53.01%; in experiment [4] (KN510 100 μM) it was 40.19%; in experiment [4] (KN510 200 μM), 17.37%; in [5] (KN510 100 μM) it was 77.31%; in experiment [5] (KN510 200 μM), 28.00%. For the same molecule, the “degree … (100%)” value in [6] (KN510 100 μM) is 86.46%; in experiment [6] (KN510 200 μM), 44.41%; in [7] (KN510 100 μM) it was 97.11%; in experiment [7] (KN510 200 μM), 54.29%; in experiment [8] (KN510 100 μM), 43.26%; in experiment [8] (KN510 200 μM) it was 19.68%. Moreover, the inhibition at 100 µM came out at 79.5% in experiment [9] (BX-PC3, KN510 100 μM); 1.3% in [10] (Capan-2, KN510 100 μM); 70.8% in experiment [11] (MIA PaCa-2, KN510 100 μM); 81% in [13] (KN510 100 μM); 68.2% in experiment [14] (KN510 100 μM). Moreover, the inhibition at 200 µM in [9] (BX-PC3, KN510 200 μM) is 96.9%; in experiment [10] (Capan-2, KN510 200 μM), 49.5%; in experiment [11] (MIA PaCa-2, KN510 200 μM), 92.8%; in experiment [13] (KN510 200 μM), 89.6%; in experiment [14] (KN510 200 μM), 89.8%. Moreover, the cell growth (% of control) at 100 µM in experiment [12] (CAPAN-1, KN510 100 μM) was 97.6%. Further, the cell growth (% of control) at 200 µM in experiment [12] (CAPAN-1, KN510 200 μM) is 111%.

Turning to `COc1ccc(CN2CCNCC2)c(OC)c1OC` [KN713, trimetazidine], the “cell growth (Control = 100)” value in experiment [1] (KN713 2.5 mM) amounted to 66.40; in experiment [2] (KN713 2.5 mM), 59.89. The “degree … (100%)” value in experiment [3] (KN713 2.5 mM) is 88.97% and 65.95%; in experiment [4] (KN713 2.5 mM), 36.83% and 32.97%; in experiment [5] (KN713 2.5 mM), 61.66% and 62.56%; in experiment [6] (KN713 2.5 mM), 78.16% and 58.31%; in experiment [7] (KN713 2.5 mM), −0.24% and 1.98%; in experiment [8] (KN713 2.5 mM), 53.40% and 61.55%. Moreover, the inhibition at 1000 µM in experiment [9] (BX-PC3, KN713 1 mM) was 12.3%; in [10] (Capan-2, KN713 1 mM) it was -22.2%; in experiment [11] (MIA PaCa-2, KN713 1 mM), 30.2%; in [13] (KN713 1 mM), 48.1%; in [14] (KN713 1 mM), -3.16%. Also, the cell growth (% of control) at 1000 µM in experiment [12] (CAPAN-1, KN713 1 mM) was determined as 31.2%.

By inhibition is commonly meant the change of the read-out against control, counted positive when it falls.
